Results reported in patent US10781183B2, “Small molecule inducers of reactive oxygen species and inhibitors of mitochondrial activity” (The Regents of the University of Michigan, priority 2016, dated 2020).

Columns and labels:
[1] = system: MiaPaCa-2 cells; assay: ROS detection assay (H2DCFDA probe); format: cell-based
Method: To quantify ROS induction by redox modulators, a high throughput ROS assay in 384-well plates using H2DCFDA as the ROS detection probe was developed (FIG. 1A).
Cells were detached by 0.05% trypsin-EDTA, neutralized, centrifuged (1200 rpm, 5 min) and resuspended in cell culture media. Suspension were then treated with 20 μM cell permeable H2DCFDA for 30 min at 37° C. Cells were then centrifuged (1200 rpm, 5 min) and washed with cell culture media to remove excess probe. After washing, cells were placed in black-wall 384-well plate at 20,000 cells/well, incubated for 30 min and treated by compounds at designated conditions. Fluorescent signal were then read at 493 nm/523 nm on BioTek H1 plate reader for ROS detection.

[2] = system: MiaPaCa-2 xenograft; assay: MiaPaCa-2 xenograft studies; format: in vivo, NOD/SCID mice
Method: MiaPaCa-2 cells (2.0×10^6) in a 100 μL suspension of RPMI1640 was injected subcutaneously into dorsal flank of 6-week NOD/SCID mice. Tumor size was monitored twice a week through caliper measurement using the following equation: V=d^2×D/2, where d represents width and D represents length of the tumor. In study 1, mice were randomly grouped (n=5 per group) when average tumor size reached 65 mm^3. Daily treatment was given at five days on two days off cycles. QD325 was given at 5 mg/kg in 100 μL vehicle (5% DMSO, 60% Propylene glycol, 35% Saline) by intraperitoneal injection. […] Unpaired t test was performed for data analysis and p<0.05 was considered significant. […] Procedures for study 2 with gemcitabine treatment are detailed in supplemental information.
On necropsy, tumors, hearts, kidneys, livers, lungs, spleens and pancreases were collected, fixed in 10% neutral buffered formalin, embedded in paraffin, and sectioned. Sections ([…]) were stained with hematoxylin and eosin to facilitate histologic examination. For Ki67 expression level, immunohistochemistry staining was performed on sections with Ki67 antibody. Embedding, sectioning and staining of samples were performed by ULAM pathology core for animal research at the University of Michigan. Representative images were taken on Olympus IX83 microscope with 20× magnification.

O=C1C(Nc2ccc(-c3ccccc3)cc2)=CC(=O)c2ncncc21 [QD325, 6-([1,1′-biphenyl]-4-ylamino)quinazoline-5,8-dione]
ROS induction compared with lead compound QD232 ([1]; MiaPaCa-2, 24 h treatment, 10 μM (FIG. 1C)): significantly higher ROS induction than the lead compound QD232 | accumulation of ROS ([1]; MiaPaCa-2, 10, 3.3 or 1.1 μM (FIG. 3A)): time- and dose-dependent accumulation of ROS | ROS accumulation at 10 and 3.3 μM ([1]; MiaPaCa-2, 10 and 3.3 μM): rapid and high ROS accumulation | ROS induction after NAC pretreatment ([1]; MiaPaCa-2, NAC 5 mM for 30 min pretreatment (FIG. 3B)): inhibited | average tumor size at the end of the 48-day treatment period ([2]; QD325 5 mg/kg five times a week, gemcitabine 15 mg/kg once a week, control 1503±189 mm^3): 248±72 mm^3 | growth of tumors ([2]; QD325 5 mg/kg i.p. five times a week, treatment period of 44 days): significantly delayed growth of tumors | average tumor size on day 44 ([2]; QD325 5 mg/kg i.p. five times a week, n=5, control 1291±168 mm^3): 308±72 mm^3 | NQO1, HO-1, CHOP and GRP78 protein levels in tumor lysates ([2]; QD325 treated tumors vs vehicle controls (FIG. 12E)): significantly upregulated | growth of tumors at higher doses ([2]; after day 44, dose increased from 5 to 20 mg/kg until day 67, two mice per group): able to delay growth of the tumors | Ki67 levels in tumor tissues ([2]; immunohistochemistry of xenograft sections, QD325 5 mg/kg (FIG. 12D)): decreased Ki67 levels
